The record followed here is ChEMBL document CHEMBL4431320 (J Med Chem, 2016).

Structures are written as SMILES. The source made the active and inactive calls. The rule behind the calls is not given here.

In data set [1] the target is Cholinesterase (Equus caballus) (UniProt P81908). Kind of data set: Inhibition of equine BuChE at 10 uM using ACTI as substrate preincubated for 29 mins followed by substrate addition measured at 1 min intervals for 10 mins by Ellman's assay. (DTNB colorimetry detects thiols as they appear.)
For data set [2], the target named is Acetylcholinesterase (Electrophorus electricus) (UniProt O42275). Kind of data set: Inhibition of electric eel AChE at 10 uM using ACTI as substrate preincubated for 29 mins followed by substrate addition measured at 1 min intervals for 10 mins by Ellman's assay.
Data set [3] deals with Acetylcholinesterase (Homo sapiens) (UniProt P22303). Kind of data set: Inhibition of human AChE at 10 uM using ACTI as substrate incubated for 40 mins measured at 1 min intervals for 10 mins by Ellman's assay.
Data set [4] is described as follows: Selectivity ratio of IC50 for equine BuChE to IC50 for human BuChE.
The nature of data set [5]: Stability of compound in crystallization buffer at pH 7.4 at 0.1 mg/mL incubated for 24 hrs by RP-HPLC analysis. The class given is physicochemical. The note with it: pH 7.4, 24 h.
The nature of data set [6]: Stability of compound in crystallization buffer at pH 7.4 at 0.1 mg/mL incubated for 24 hrs by RP-HPLC analysis in presence of equine BuChE. Type of data set: physicochemical. The note with it: pH 7.4, 24 h.
The nature of data set [7]: Permeability of compound at 10 uM after 4 hrs by PAMPA. The class given is ADME. To be noted: read-out: permeability. (In general: The PAMPA barrier holds no transporters, so it reflects passive diffusion.)
Data set [8] concerns SH-SY5Y. Kind of data set: Cytotoxicity against human SH-SY5Y cells at 0.5 to 10 uM after 48 hrs by MTT assay. Type of data set: cell-based.
Data set [9] has as its target Cholinesterase (Equus caballus, UniProt P81908).
Description: Inhibition of equine BuChE using ACTI as substrate preincubated for 29 mins followed by substrate addition measured at 1 min intervals for 10 mins by Ellman's assay
In data set [10] the target is Cholinesterase (Homo sapiens, UniProt P06276).
Chain of Cholinesterase (Homo sapiens, UniProt P06276) (P06276 whole entry): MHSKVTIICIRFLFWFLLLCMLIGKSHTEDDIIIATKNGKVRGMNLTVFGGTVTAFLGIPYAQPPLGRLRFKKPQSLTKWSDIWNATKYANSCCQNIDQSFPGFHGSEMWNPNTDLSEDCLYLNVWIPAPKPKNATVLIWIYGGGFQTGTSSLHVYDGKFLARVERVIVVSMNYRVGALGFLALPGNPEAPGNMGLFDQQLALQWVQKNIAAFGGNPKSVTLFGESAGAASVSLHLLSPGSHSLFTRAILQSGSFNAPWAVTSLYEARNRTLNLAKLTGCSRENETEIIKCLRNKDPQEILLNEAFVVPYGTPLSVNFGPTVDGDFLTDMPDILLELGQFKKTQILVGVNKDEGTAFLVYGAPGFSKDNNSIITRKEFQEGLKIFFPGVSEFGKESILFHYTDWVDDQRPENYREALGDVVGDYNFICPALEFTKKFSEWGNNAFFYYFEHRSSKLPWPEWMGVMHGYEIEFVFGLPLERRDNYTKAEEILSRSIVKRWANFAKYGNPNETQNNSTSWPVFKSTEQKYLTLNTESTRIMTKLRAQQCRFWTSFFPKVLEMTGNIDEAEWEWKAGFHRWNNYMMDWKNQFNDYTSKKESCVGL
Description: Inhibition of human BuChE using ACTI as substrate incubated for 40 mins measured at 1 min intervals for 10 mins by Ellman's assay

Chain of Cholinesterase (Equus caballus) (P81908 whole entry): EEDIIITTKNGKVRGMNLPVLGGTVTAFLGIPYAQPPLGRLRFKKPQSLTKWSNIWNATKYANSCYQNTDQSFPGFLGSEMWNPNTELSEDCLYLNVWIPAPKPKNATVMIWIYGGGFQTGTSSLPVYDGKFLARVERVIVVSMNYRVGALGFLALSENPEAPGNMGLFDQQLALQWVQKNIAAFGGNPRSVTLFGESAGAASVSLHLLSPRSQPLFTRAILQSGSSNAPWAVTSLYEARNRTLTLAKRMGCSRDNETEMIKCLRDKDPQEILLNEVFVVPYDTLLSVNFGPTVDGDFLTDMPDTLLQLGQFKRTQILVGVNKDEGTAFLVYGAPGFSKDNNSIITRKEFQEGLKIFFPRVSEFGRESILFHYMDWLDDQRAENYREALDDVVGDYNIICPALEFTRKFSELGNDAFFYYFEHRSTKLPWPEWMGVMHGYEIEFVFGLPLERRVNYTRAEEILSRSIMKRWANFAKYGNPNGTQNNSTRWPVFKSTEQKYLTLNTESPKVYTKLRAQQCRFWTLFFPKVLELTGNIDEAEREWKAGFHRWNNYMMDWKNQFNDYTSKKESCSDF
Chain of Cholinesterase (Equus caballus, UniProt P81908) (P81908 whole entry): as above
Chain of Acetylcholinesterase (Electrophorus electricus) (O42275 24-633 limits assumed): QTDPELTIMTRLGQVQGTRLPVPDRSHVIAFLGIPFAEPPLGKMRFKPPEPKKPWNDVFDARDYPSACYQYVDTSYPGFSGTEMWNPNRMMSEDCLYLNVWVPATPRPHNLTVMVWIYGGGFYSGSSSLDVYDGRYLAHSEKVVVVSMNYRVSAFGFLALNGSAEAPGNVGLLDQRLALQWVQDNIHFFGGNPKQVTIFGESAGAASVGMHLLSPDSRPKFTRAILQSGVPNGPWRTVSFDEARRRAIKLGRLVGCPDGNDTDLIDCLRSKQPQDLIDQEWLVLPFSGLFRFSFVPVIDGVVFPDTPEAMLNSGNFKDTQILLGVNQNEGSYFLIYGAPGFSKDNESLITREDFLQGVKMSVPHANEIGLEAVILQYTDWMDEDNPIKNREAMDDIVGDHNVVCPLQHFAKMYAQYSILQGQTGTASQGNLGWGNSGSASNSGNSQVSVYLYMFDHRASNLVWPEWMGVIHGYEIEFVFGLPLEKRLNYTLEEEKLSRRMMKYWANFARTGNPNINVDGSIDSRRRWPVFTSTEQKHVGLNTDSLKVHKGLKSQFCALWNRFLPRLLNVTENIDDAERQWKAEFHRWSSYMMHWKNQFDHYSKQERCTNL
Chain of Acetylcholinesterase (Homo sapiens) (P22303 whole entry): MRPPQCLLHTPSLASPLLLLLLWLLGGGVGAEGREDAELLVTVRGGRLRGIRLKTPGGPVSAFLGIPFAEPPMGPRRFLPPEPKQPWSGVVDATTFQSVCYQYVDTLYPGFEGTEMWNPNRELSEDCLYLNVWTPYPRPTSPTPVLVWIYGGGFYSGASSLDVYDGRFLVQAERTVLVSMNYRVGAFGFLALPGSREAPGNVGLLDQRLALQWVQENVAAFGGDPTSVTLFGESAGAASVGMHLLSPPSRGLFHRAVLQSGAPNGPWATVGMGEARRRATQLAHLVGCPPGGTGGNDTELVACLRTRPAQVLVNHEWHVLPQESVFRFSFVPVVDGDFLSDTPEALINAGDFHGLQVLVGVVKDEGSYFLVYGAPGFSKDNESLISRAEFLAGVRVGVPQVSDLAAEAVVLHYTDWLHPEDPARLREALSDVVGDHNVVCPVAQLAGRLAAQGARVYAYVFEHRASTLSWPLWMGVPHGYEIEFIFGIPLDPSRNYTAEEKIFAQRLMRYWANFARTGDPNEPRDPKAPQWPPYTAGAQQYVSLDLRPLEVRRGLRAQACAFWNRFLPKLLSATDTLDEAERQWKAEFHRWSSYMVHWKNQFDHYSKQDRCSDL

Broadly, the inhibition is the drop in the measured response relative to a control, in per cent. For `O=C(Cn1cc(C(=O)C2CC2)c2ccccc21)NCCc1c[nH]c2ccccc12`, the inhibition in data set [1] amounted to 7.28%; in [2] it was 3.44%.

Usually IC50 stands for the concentration needed to halve the response being measured. Higher therefore signals weaker potency in that assay. Consider `CCn1c2ccccc2c2cc(C3C(C(=O)OCC4CCCO4)=C(C)NC4=C3C(=O)CCC4)ccc21` (stereo unspecified), for which the figures for the inhibition in [1] and in data set [2] were 84.2% and 1.73%, respectively. Further, the inhibition entry in data set [3] is “inactive”. In addition, in data set [4], the Ratio IC50 was 2. Further, the Stability result in data set [5] and in [6] was “Stable” throughout. In addition, in data set [7], the Papp at 4 h, 10 µM came out at 2.46 ×10⁻⁶ cm/s. In addition, in data set [8], the Activity entry is “Non-Toxic”. Besides, the IC50 in data set [9] was found to be 0.763 µM; in data set [10] it was 0.443 µM.

`CCSCCOC(=O)C1=C(C)NC2=C(C(=O)CCC2)C1c1ccc2c(c1)c1ccccc1n2CC` (stereo unspecified) came in with an inhibition in data set [1] of 51.2%.

On to `CCOC(=O)N1CCN([C@H]2CC(=O)N(c3cccc4ccccc34)C2=O)CC1`, for which the inhibition was found to be 1.85% in data set [1] and 4.93% in data set [2].

For the molecule `CCCCSc1nc2c(c(=O)[nH]c(=O)n2C)n1C[C@@H](O)COc1cccc2ccccc12`, the inhibition in data set [1] worked out at 3.69%; in data set [2] it was 5.34%.

For `COc1ccccc1NC(=O)Cn1c(CCC(=O)O)ccc1-c1ccccc1`, the inhibition came out at 5.54% in data set [1] and 2.2% in data set [2].

With `O=C(O)[C@H](Cc1c[nH]c2ccccc12)Nc1ncnc2c1oc1ccccc12`, the inhibition in data set [1] worked out at 7.18%; in [2] it was 1.45%.

`Cc1cc2nc([C@@H]3CCCN3C(=O)[C@H]3C[C@@H](O)CN3Cc3ccccc3)[nH]c2cc1C`: the inhibition in [1] came out at 17.5%. Further, in data set [2], the inhibition result is “inactive”. The same molecule registered an IC50 in [9] of 46.8 µM.

For `CCOCCOC(=O)C1=C(C)NC2=C(C(=O)CC(C)(C)C2)C1c1ccc2c(c1)c1ccccc1n2CC` (stereo unspecified), in [1], the inhibition was 2.49%.

In data set [1], `CCn1c2ccccc2c2cc(C3C(C(=O)OC4CCCC4)=C(C)NC4=C3C(=O)CC(C)(C)C4)ccc21` (stereo unspecified) gave an inhibition of 2.53%.

For `CCn1c2ccccc2c2cc([C@@H]3C(C(=O)OCCOC)=C(C)NC4=C3C(=O)CCC4)ccc21`, the results for the inhibition in data set [1] and in [2] were 52.7% and 1.35%, respectively. The molecule further gave an IC50 in [9] of 9.72 µM.

As to `CN(CC(=O)Nc1ccccc1F)S(=O)(=O)c1ccc2ccccc2c1`, the inhibition in data set [1] is 5.64%; in [2], 3.43%.

Regarding `CCC(C)OC(=O)C1=C(C)NC2=C(C(=O)CC(C)(C)C2)C1c1ccc2c(c1)c1ccccc1n2CC` (stereo unspecified), the inhibition result in data set [1] was “inactive”.

As for `CCCCOC(=O)C1=C(C)NC2=C(C(=O)CCC2)C1c1ccc2c(c1)c1ccccc1n2CC` (stereo unspecified), the inhibition in data set [1] came to 53.7%.

Take `CCn1c2ccccc2c2cc(C3C(C(=O)OC)=C(C)NC4=C3C(=O)CCC4)ccc21` (stereo unspecified): the inhibition in [1] is 49.5%.

For `Cc1ccccc1-n1nc(C)c(CN(CCN(C)C)Cc2ccccn2)c1C`, the inhibition in data set [1] came out at 31.9%; in [2], 2.46%. For the same molecule, the IC50 in [9] worked out at 19.2 µM.

In the case of `Cc1cccc(C2(O)CCN(Cc3c(-c4cccs4)[nH]c4ncccc34)CC2)c1`, the inhibition in [1] came to 16.2%; in [2], 2.14%. The molecule also came in with an IC50 in [9] of 48.9 µM.

As for `Cc1cc(C)n(C[C@H](O)CN(Cc2nc3ccccc3[nH]2)Cc2ccco2)n1`, the values for the inhibition in data set [1] and in data set [2] were 6.33% and 2.32%, respectively.

As for `O=C(CS[C@@H]1CC(=O)N(c2ccccc2)C1=O)Nc1ccccc1F`, the inhibition in data set [1] was 6.01%; in data set [2], 0.484%.

With `O[C@H](CN1CCN(c2ccccc2)CC1)c1c[nH]c2ccc(F)cc12`, the results for the inhibition in [1] and in data set [2] were 1.31% and 2.69%, respectively.
